Structures are written as SMILES. *1 amine or outer side, *2 acyl side, *3 side chain or, on linkers, in order; H or OH if unused. Where a SMILES comes first, the peptide text is derived from it. Side-chain parts run from the residue outwards. [ ]: non-standard residue; d: D form. The star is where a group is joined. C20 diacid = O=C(O)CCCCCCCCCCCCCCCCCCC(=O)*; C18 diacid = O=C(O)CCCCCCCCCCCCCCCCC(=O)*; γGlu = O=C(O)[C@H](CCC(=O)[*:2])N[*:1]; Api = NC1(C(=O)O)CCNCC1; AEEA = NCCOCCOCC(=O)O; Aib = CC(C)(N)C(=O)O

In one assay the target is T1, human CRF2a receptor (Homo sapiens, UniProt Q13324).
T1 construct: expressed in transfected cells; host or cells: TeloHEAC cells
T1 sequence (Q13324 1-411): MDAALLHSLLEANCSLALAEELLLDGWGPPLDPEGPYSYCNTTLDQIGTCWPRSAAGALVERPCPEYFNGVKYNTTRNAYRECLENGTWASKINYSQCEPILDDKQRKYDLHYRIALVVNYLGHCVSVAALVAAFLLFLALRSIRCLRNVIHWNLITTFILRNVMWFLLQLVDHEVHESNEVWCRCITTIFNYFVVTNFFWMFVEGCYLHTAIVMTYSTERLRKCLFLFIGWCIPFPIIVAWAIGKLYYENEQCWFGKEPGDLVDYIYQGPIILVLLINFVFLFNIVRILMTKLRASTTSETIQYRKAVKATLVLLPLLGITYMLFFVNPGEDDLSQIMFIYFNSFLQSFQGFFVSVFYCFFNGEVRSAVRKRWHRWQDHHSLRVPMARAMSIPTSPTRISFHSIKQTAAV
In words: Activity at human CRF2a receptor, cAMP functional assay in TeloHEAC cells. It counts as cell-based. To be noted: TeloHEAC cells stably expressing human CRF2a receptor, relative to urocortin 2 (100 nM = 100%). The method in brief: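 TeloHEAC cells stably expressing human CRF2a (10000 cells/well) were treated with 16-point 1:2 compound dilutions in HBSS/20 mM HEPES with IBMX for 30 min at 37° C. cAMP was read by HTRF (665/620 nm ratio). EC50 was the concentration giving 50% activation, with 100 nM urocortin 2 set as 100%.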

The target of another assay is T2, CFR1R receptor (Homo sapiens, UniProt P34998).
T2 construct: host or cells: CHO-K1 (clone 2)
T2 sequence (P34998 24-415): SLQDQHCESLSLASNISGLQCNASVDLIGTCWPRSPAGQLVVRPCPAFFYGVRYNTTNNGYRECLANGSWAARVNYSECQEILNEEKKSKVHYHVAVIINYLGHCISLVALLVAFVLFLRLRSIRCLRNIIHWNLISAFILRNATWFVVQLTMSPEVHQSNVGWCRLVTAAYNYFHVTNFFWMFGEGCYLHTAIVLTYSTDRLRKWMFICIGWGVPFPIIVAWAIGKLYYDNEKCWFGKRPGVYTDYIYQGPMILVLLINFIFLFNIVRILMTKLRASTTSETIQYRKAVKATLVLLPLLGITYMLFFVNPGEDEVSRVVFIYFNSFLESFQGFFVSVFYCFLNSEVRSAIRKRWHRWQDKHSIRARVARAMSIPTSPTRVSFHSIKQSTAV
In words: Activity at anti-target CFR1R receptor, cAMP assay in CRF1R-overexpression CHO-K1 cells. It counts as cell-based. To be noted: 100% = Sauvagine at 100 nM; for EC50: cAMP. The method in brief: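 Uses frozen stocks of CHO-K1 clone 2 cells overexpressing human CRF1R, plated at 4000 cells/well final, with cAMP measured by the same protocol as the TeloHAEC line. Full-activation control: 100 nM Sauvagine.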

With `CC[C@H](C)[C@H](NC(C)=O)C(=O)N[C@H](C(=O)N[C@@H](CC(C)C)C(=O)N[C@@H](CO)C(=O)N[C@@H](CC(C)C)C(=O)N[C@@H](CC(=O)O)C(=O)N[C@@H](C(=O)N1CCC[C@H]1C(=O)N[C@H](C(=O)N[C@@H](CCCCN)C(=O)N[C@@H](CC(C)C)C(=O)N[C@@H](CCCCNC(=O)COCCOCCNC(=O)COCCOCCNC(=O)CC[C@H](NC(=O)CC[C@H](NC(=O)CCCCCCCCCCCCCCCCC(=O)O)C(=O)O)C(=O)O)C(=O)N[C@@H](CCCCN)C(=O)N[C@H](C(=O)N[C@@H](CC(C)C)C(=O)N[C@@H](CC(C)C)C(=O)N[C@@H](CCC(=O)O)C(=O)N[C@@H](CCC(N)=O)C(=O)N[C@@H](CCC(=O)O)C(=O)N[C@@H](CCCCN)C(=O)N[C@@H](CCC(N)=O)C(=O)N[C@@H](CCCCN)C(=O)N[C@@H](CCCCN)C(=O)N[C@@H](CCC(N)=O)C(=O)N[C@@H](CCCNC(=N)N)C(=O)N[C@@H](CCC(=O)O)C(=O)N[C@@H](CCC(N)=O)C(=O)N[C@@H](C)C(=O)N[C@@H](CCC(=O)O)C(=O)N[C@H](C(=O)N[C@@H](CC(N)=O)C(=O)NC(C)(C)C(=O)N[C@@H](CCC(N)=O)C(=O)N[C@H](C(=O)N[C@@H](CC(C)C)C(=O)N[C@@H](C)C(=O)N[C@@H](CCC(N)=O)C(=O)N[C@H](C(N)=O)C(C)C)[C@@H](C)CC)[C@@H](C)O)[C@@H](C)CC)[C@@H](C)CC)C(C)C)C(C)C` [compound 204] (Ac-IVLSLD[dV]PIKLK([AEEA-AEEA-γGlu-γGlu-C18 diacid])KILLEQEKQKKQREQAETN[Aib]QILAQV-NH2), the EC50 (commonly the concentration needed to bring the measured effect to its halfway point) at human CRF2a receptor was found to be 1.84 nM. On CFR1R receptor, the “Emax (% I)” value is recorded as −2 % I and the EC50 is over 250 nM.

The compound `CC[C@H](C)[C@H](NC(C)=O)C(=O)N[C@H](C(=O)N[C@@H](CC(C)C)C(=O)N[C@@H](CO)C(=O)N[C@@H](CC(C)C)C(=O)N[C@@H](CC(=O)O)C(=O)N[C@@H](C(=O)N1CCC[C@H]1C(=O)N[C@H](C(=O)N[C@@H](CCCCN)C(=O)N[C@@H](CC(C)C)C(=O)N[C@@H](CCCCNC(=O)COCCOCCNC(=O)CC[C@H](NC(=O)CC[C@H](NC(=O)CCCCCCCCCCCCCCCCC(=O)O)C(=O)O)C(=O)O)C(=O)N[C@@H](CCCCN)C(=O)N[C@H](C(=O)N[C@@H](CC(C)C)C(=O)N[C@@H](CC(C)C)C(=O)N[C@@H](CCC(=O)O)C(=O)N[C@@H](CCC(N)=O)C(=O)N[C@@H](CCC(=O)O)C(=O)N[C@@H](CCCCN)C(=O)N[C@@H](CCC(N)=O)C(=O)N[C@@H](CCCCN)C(=O)N[C@@H](CCCCN)C(=O)N[C@@H](CCC(N)=O)C(=O)N[C@@H](CCCNC(=N)N)C(=O)N[C@@H](CCC(=O)O)C(=O)N[C@@H](CCC(N)=O)C(=O)N[C@@H](C)C(=O)N[C@@H](CCC(=O)O)C(=O)N[C@H](C(=O)N[C@@H](CC(N)=O)C(=O)NC(C)(C)C(=O)N[C@@H](CCC(N)=O)C(=O)N[C@H](C(=O)N[C@@H](CC(C)C)C(=O)N[C@@H](C)C(=O)N[C@@H](CCC(N)=O)C(=O)N[C@H](C(N)=O)C(C)C)[C@@H](C)CC)[C@@H](C)O)[C@@H](C)CC)[C@@H](C)CC)C(C)C)C(C)C` [compound 205] (Ac-IVLSLD[dV]PIKLK([AEEA-γGlu-γGlu-C18 diacid])KILLEQEKQKKQREQAETN[Aib]QILAQV-NH2) returned an EC50 on human CRF2a receptor of 1.43 nM. Further, on CFR1R receptor, the “Emax (% I)” value was found to be 1 % I and the EC50 was over 250 nM.

In turn, `CC[C@H](C)[C@H](NC(C)=O)C(=O)N[C@H](C(=O)N[C@@H](CC(C)C)C(=O)N[C@@H](CO)C(=O)N[C@@H](CC(C)C)C(=O)N[C@@H](CC(=O)O)C(=O)N[C@@H](C(=O)N1CCC[C@H]1C(=O)N[C@H](C(=O)N[C@@H](CCCCN)C(=O)N[C@@H](CC(C)C)C(=O)N[C@@H](CCCCNC(=O)CC[C@H](NC(=O)CCCCCCCCCCCCCCCCCCC(=O)O)C(=O)O)C(=O)N[C@@H](CCCCN)C(=O)N[C@H](C(=O)N[C@@H](CC(C)C)C(=O)N[C@@H](CC(C)C)C(=O)N[C@@H](CCC(=O)O)C(=O)N[C@@H](CCC(N)=O)C(=O)N[C@@H](CCC(=O)O)C(=O)N[C@@H](CCCCN)C(=O)N[C@@H](CCC(N)=O)C(=O)N[C@@H](CCCCN)C(=O)N[C@@H](CCCCN)C(=O)N[C@@H](CCC(N)=O)C(=O)N[C@@H](CCCNC(=N)N)C(=O)N[C@@H](CCC(=O)O)C(=O)N[C@@H](CCC(N)=O)C(=O)N[C@@H](C)C(=O)N[C@@H](CCC(=O)O)C(=O)N[C@H](C(=O)N[C@@H](CC(N)=O)C(=O)NC1(C(=O)N[C@@H](CCC(N)=O)C(=O)N[C@H](C(=O)N[C@@H](CC(C)C)C(=O)N[C@@H](C)C(=O)N[C@@H](CCC(N)=O)C(=O)N[C@H](C(N)=O)C(C)C)[C@@H](C)CC)CCNCC1)[C@@H](C)O)[C@@H](C)CC)[C@@H](C)CC)C(C)C)C(C)C` [compound 207] (Ac-IVLSLD[dV]PIKLK([γGlu-C20 diacid])KILLEQEKQKKQREQAETN[Api]QILAQV-NH2) showed an EC50 on human CRF2a receptor of 0.12 nM. Further, on CFR1R receptor, the “Emax (% I)” value is 65 % I.

On to `CC[C@H](C)[C@H](NC(C)=O)C(=O)N[C@H](C(=O)N[C@@H](CC(C)C)C(=O)N[C@@H](CO)C(=O)N[C@@H](CC(C)C)C(=O)N[C@@H](CC(=O)O)C(=O)N[C@@H](C(=O)N1CCC[C@H]1C(=O)N[C@H](C(=O)N[C@@H](CCCCN)C(=O)N[C@@H](CC(C)C)C(=O)N[C@@H](CCCCNC(=O)CC[C@H](NC(=O)CCCCCCCCCCCCCCCCCCC(=O)O)C(=O)O)C(=O)N[C@@H](CCCCN)C(=O)N[C@H](C(=O)N[C@@H](CC(C)C)C(=O)N[C@@H](CC(C)C)C(=O)N[C@@H](CCC(=O)O)C(=O)N[C@@H](CCC(N)=O)C(=O)N[C@@H](CCC(=O)O)C(=O)N[C@@H](CCCCN)C(=O)N[C@@H](CCC(N)=O)C(=O)N[C@@H](CCCCN)C(=O)NC(C)(C)C(=O)N[C@@H](CCC(N)=O)C(=O)N[C@@H](CCCNC(=N)N)C(=O)N[C@@H](CCC(=O)O)C(=O)N[C@@H](CCC(N)=O)C(=O)N[C@@H](C)C(=O)N[C@@H](CCC(=O)O)C(=O)N[C@H](C(=O)N[C@@H](CC(N)=O)C(=O)NC1(C(=O)N[C@@H](CCC(N)=O)C(=O)N[C@H](C(=O)N[C@@H](CC(C)C)C(=O)N[C@@H](C)C(=O)N[C@@H](CCC(N)=O)C(=O)N[C@H](C(N)=O)C(C)C)[C@@H](C)CC)CCNCC1)[C@@H](C)O)[C@@H](C)CC)[C@@H](C)CC)C(C)C)C(C)C` [compound 208] (Ac-IVLSLD[dV]PIKLK([γGlu-C20 diacid])KILLEQEKQK[Aib]QREQAETN[Api]QILAQV-NH2), for which, at human CRF2a receptor, the concentration for a half-maximal effect (EC50) worked out at 0.15 nM. Also, the “Emax (% I)” value at CFR1R receptor is on record as 63 % I.

For the compound `CC[C@H](C)[C@H](NC(C)=O)C(=O)N[C@H](C(=O)N[C@@H](CC(C)C)C(=O)N[C@@H](CO)C(=O)N[C@@H](CC(C)C)C(=O)N[C@@H](CC(=O)O)C(=O)N[C@@H](C(=O)N1CCC[C@H]1C(=O)N[C@H](C(=O)N[C@@H](CCCCN)C(=O)N[C@@H](CC(C)C)C(=O)N[C@@H](CCCCNC(=O)CC[C@H](NC(=O)CCCCCCCCCCCCCCCCCCC(=O)O)C(=O)O)C(=O)N[C@@H](CCCCN)C(=O)N[C@H](C(=O)N[C@@H](CC(C)C)C(=O)N[C@@H](CC(C)C)C(=O)N[C@@H](CCC(=O)O)C(=O)N[C@@H](CCC(N)=O)C(=O)N[C@@H](CCC(=O)O)C(=O)N[C@@H](C)C(=O)N[C@@H](CCC(N)=O)C(=O)N[C@@H](CCCCN)C(=O)N[C@@H](CCCCN)C(=O)N[C@@H](CCC(N)=O)C(=O)N[C@@H](CCCNC(=N)N)C(=O)N[C@@H](CCC(=O)O)C(=O)N[C@@H](CCC(N)=O)C(=O)N[C@@H](C)C(=O)N[C@@H](CCC(=O)O)C(=O)N[C@H](C(=O)N[C@@H](CC(N)=O)C(=O)NC(C)(C)C(=O)N[C@@H](CCC(N)=O)C(=O)N[C@H](C(=O)N[C@@H](CC(C)C)C(=O)N[C@@H](C)C(=O)N[C@@H](CCC(N)=O)C(=O)N[C@H](C(N)=O)C(C)C)[C@@H](C)CC)[C@@H](C)O)[C@@H](C)CC)[C@@H](C)CC)C(C)C)C(C)C` [compound 211] (Ac-IVLSLD[dV]PIKLK([γGlu-C20 diacid])KILLEQEAQKKQREQAETN[Aib]QILAQV-NH2), the response on human CRF2a receptor was half-maximal at 0.15 nM (EC50). In addition, the “Emax (% I)” value at CFR1R receptor turned out to be 73 % I.

The values are drawn from patent publication US20260001928A1 (CORTERIA PHARMACEUTICALS, priority 2022, published 2026).
